We go through 7 compounds from US9765105B2, “Macrolide compound” (Pulike Biological Engineering, Inc., priority 2013, dated 2017).

Molecules are shown by their SMILES.

What all share (experiment): in vitro susceptibility, MIC by mini broth dilution
Type in all cases: cell-based

One experiment has as its system Haemophilus parasuis. As to the method: (§1) in vitro tests of susceptibility of the compounds according to the present disclosure against bacterial strains commonly used in laboratories. In accordance with the Performance Standards for Antimicrobial Disk Susceptibility Tests: Approved Standard published by the US National Committee for Clinical Laboratory Standards, the antibacterial activities of compounds prepared according to examples 5 to 187 were tested. The MICs (minimum inhibitory concentration) of the medicaments prepared according to the examples on the following bacterial strains were measured through mini broth dilution technique. Staphylococcus aureus CVCC26003, Streptococcus equines CVCC556. Actinobacillus pleuropneumoniae CVCC262, Haemophilus parasuis, and Pasteurella multocida CVCC399, which were purchased from the Control Institute of Veterinary Bioproducts and Pharmaceuticals, China. 4.1.2 Culture Media for the Rest Four Bacterial Strains. Liquid culture medium: […] Solid culture medium: […] The strains were taken out of a refrigerator at −20° C. to be revived, and were spreaded by streaking on the solid culture medium with an inoculating loop. The inoculated culture medium was cultured at 35° C. in a constant temperature incubator for 20 h. […] were selected from a well-grown culture plate and streaked on the solid culture medium. The inoculated culture medium was cultured at 35° C. in the constant temperature incubator for 20 h. […] A 96-well plate was used, and 100 μl of DMSO was added into each of wells 2 to 11, and 200 μl of ready-prepared medicament solution was added into the 1st well, 100 μl of the medicament solution was extracted from the 1st well and added into the 2nd well. Double dilution was performed until the 11th well, thereby forming 11 gradients. In this case, compound of parent plate was prepared. 3 μl of double diluted medicament solution was extracted with a 12-channel pipettor and added into wells 1-11 of a new disposable 96-well culture plate. The 12th well thereof is a control well. For each medicament, there are two adjacent rows which are parallel. The transferred compound plate was reserved for later use. […] The dilution ratio was recorded, and the bacterial liquid for the tests was diluted according to the recorded dilution ratio. Subsequently, the bacterial suspension and the liquid culture medium were diluted in the proportion of 1:200. The diluted solution was reserved for later use.

The test system of experiment [1] is Actinobacillus pleuropneumoniae CVCC262. Particulars: strain CVCC262. As to the method:
as §1

For experiment [2], the system named is Pasteurella multocida CVCC399. The following applies: strain CVCC399. As to the method:
as §1

Experiment [3] deals with Streptococcus equines CVCC556. Particulars: strain CVCC556. As to the method: as §1
Experiment [4] has as its system Staphylococcus aureus CVCC26003. Particulars: strain CVCC26003. As to the method: in vitro tests of susceptibility of the compounds according to the present disclosure against bacterial strains commonly used in laboratories. In accordance with the Performance Standards for Antimicrobial Disk Susceptibility Tests: Approved Standard published by the US National Committee for Clinical Laboratory Standards, the antibacterial activities of compounds prepared according to examples 5 to 187 were tested. The MICs (minimum inhibitory concentration) of the medicaments prepared according to the examples on the following bacterial strains were measured through mini broth dilution technique. Staphylococcus aureus CVCC26003, Streptococcus equines CVCC556. Actinobacillus pleuropneumoniae CVCC262, Haemophilus parasuis, and Pasteurella multocida CVCC399, which were purchased from the Control Institute of Veterinary Bioproducts and Pharmaceuticals, China. 4.1.1 Culture Medium for Staphylococcus aureus CVCC26003 Liquid culture medium: CAMHB. […] Solid culture medium: NINA prepared according to the specification of the final product. The strains were taken out of a refrigerator at −20° C. to be revived, and were spreaded by streaking on the solid culture medium with an inoculating loop. The inoculated culture medium was cultured at 35° C. in a constant temperature incubator for 20 h. […] were selected from a well-grown culture plate and streaked on the solid culture medium. The inoculated culture medium was cultured at 35° C. in the constant temperature incubator for 20 h. […] A 96-well plate was used, and 100 μl of DMSO was added into each of wells 2 to 11, and 200 μl of ready-prepared medicament solution was added into the 1st well, 100 μl of the medicament solution was extracted from the 1st well and added into the 2nd well. Double dilution was performed until the 11th well, thereby forming 11 gradients. In this case, compound of parent plate was prepared. 3 μl of double diluted medicament solution was extracted with a 12-channel pipettor and added into wells 1-11 of a new disposable 96-well culture plate. The 12th well thereof is a control well. For each medicament, there are two adjacent rows which are parallel. The transferred compound plate was reserved for later use. […] The dilution ratio was recorded, and the bacterial liquid for the tests was diluted according to the recorded dilution ratio. Subsequently, the bacterial suspension and the liquid culture medium were diluted in the proportion of 1:200. The diluted solution was reserved for later use.

For the compound `CC[C@H]1OC(=O)[C@H](C)[C@@H](O[C@H]2C[C@@](C)(OC)[C@](O)(Cn3cccc3)[C@H](C)O2)[C@H](C)[C@@H](O[C@@H]2O[C@H](C)C[C@H](N(C)C)[C@H]2O)[C@](C)(O)C[C@@H](C)NC[C@H](C)[C@@H](O)[C@]1(C)O` [syzx-7, (2R,3S,4R,5S,8R,10R,11R,12S,13S,14R)-13-[(2,6-dideoxy-3-C-methyl-3-O-methyl-4-C-[(pyrryl)methyl]-α-L-ribopyranosyl)oxy]-2-ethyl-3,4,10-trihydroxy-3,5,8,10,12,14-hexamethyl-11-[[3,4,6-trideoxy-3-(dimethylamino)-β-D-xylo-hexopyranosy]oxy]-1-oxa-7-azacyclopentadecan-15-one], in the experiment on Haemophilus parasuis, the “MIC values, Haemophilus parasuis” value is reported as “≦0.25 ug/mi”. The “MIC values, Actinobacillus pleuropneumoniae CVCC262” value in experiment [1] is reported as 2 ug/mi. Further, the “MIC values, Pasteurella multocida CVCC399” value in experiment [2] is given as 0.25 ug/mi. For the same compound, in experiment [3], the “MIC values, Streptococcus equines CVCC556” value is “≦0.25 ug/mi”. Moreover, the “MIC values, Staphylococcus aureus CVCC26003” value in experiment [4] was “≦0.25 ug/mi”.
For the compound `CC[C@H]1OC(=O)[C@H](C)[C@@H](O[C@H]2C[C@@](C)(OC)[C@](O)(CNCc3ccc(F)cc3)[C@H](C)O2)[C@H](C)[C@@H](O[C@@H]2O[C@H](C)C[C@H](N(C)C)[C@H]2O)[C@](C)(O)C[C@@H](C)NC[C@H](C)[C@@H](O)[C@]1(C)O` [syzx-8, (2R,3S,4R,5S,8R,10R,11R,12S,13S,14R)-13-[(2,6-dideoxy-3-C-methyl-3-O-methyl-4-C-[(4-fluorobenzylamino)methyl]-α-L-ribopyranosyl)oxy]-2-ethyl-3,4,10-trihydroxy-3,5,8,10,12,14-hexamethyl-11-[[3,4,6-trideoxy-3-(dimethylamino)-β-D-xylo-hexopyranosy]oxy]-1-oxa-7-azacyclopentadecan-15-one], in the experiment on Haemophilus parasuis, the “MIC values, Haemophilus parasuis” value is recorded as “≦0.25 ug/mi”. The “MIC values, Actinobacillus pleuropneumoniae CVCC262” value in experiment [1] was 0.5 ug/mi. Further, in experiment [2], the “MIC values, Pasteurella multocida CVCC399” value came out at 0.25 ug/mi. Besides, the “MIC values, Streptococcus equines CVCC556” value in experiment [3] is given as “≦0.25 ug/mi”. For the same compound, the “MIC values, Staphylococcus aureus CVCC26003” value in experiment [4] is listed as “≦0.25 ug/mi”.
With `CC[C@H]1OC(=O)[C@H](C)[C@@H](O[C@H]2C[C@@](C)(OC)[C@](O)(Cn3ccnc3)[C@H](C)O2)[C@H](C)[C@@H](O[C@@H]2O[C@H](C)C[C@H](N(C)C)[C@H]2O)[C@](C)(O)C[C@@H](C)NC[C@H](C)[C@@H](O)[C@]1(C)O` [syzx-9, (2R,3S,4R,5S,8R,10R,11R,12S,13S,14R)-13-[(2,6-dideoxy-3-C-methyl-3-O-methyl-4-C-[(imidazolyl)methyl]-α-L-ribopyranosyl)oxy]-2-ethyl-3,4,10-trihydroxy-3,5,8,10,12,14-hexamethyl-11-[[3,4,6-trideoxy-3-(dimethylamino)-β-D-xylo-hexopyranosy]oxy]-1-oxa-7-azacyclopentadecan-15-one], the “MIC values, Haemophilus parasuis” value in the experiment on Haemophilus parasuis is “≦0.25 ug/mi”. In addition, in experiment [1], the “MIC values, Actinobacillus pleuropneumoniae CVCC262” value is on record as 0.5 ug/mi. Moreover, the “MIC values, Pasteurella multocida CVCC399” value in experiment [2] was “≦0.25 ug/mi”. The “MIC values, Streptococcus equines CVCC556” value in experiment [3] is reported as “≦0.25 ug/mi”. The “MIC values, Staphylococcus aureus CVCC26003” value in experiment [4] is “≦0.25 ug/mi”.
As to `CC[C@H]1OC(=O)[C@H](C)[C@@H](O[C@H]2C[C@@](C)(OC)[C@](O)(CNCc3ccc(Cl)cc3)[C@H](C)O2)[C@H](C)[C@@H](O[C@@H]2O[C@H](C)C[C@H](N(C)C)[C@H]2O)[C@](C)(O)C[C@@H](C)NC[C@H](C)[C@@H](O)[C@]1(C)O` [syzx-20, (2R,3S,4R,5S,8R,10R,11R,12S,13S,14R)-13-[(2,6-dideoxy-3-C-methyl-3-O-methyl-4-C-[(4-chlorolbenzylamino)methyl]-α-L-ribopyranosyl)oxy]-2-ethyl-3,4,10-trihydroxy-3,5,8,10,12,14-hexamethyl-11-[[3,4,6-trideoxy-3-(dimethylamino)-β-D-xylo-hexopyranosy]oxy]-1-oxa-7-azacyclopentadecan-15-one], the “MIC values, Haemophilus parasuis” value against Haemophilus parasuis is listed as “≦0.25 ug/mi”. The “MIC values, Actinobacillus pleuropneumoniae CVCC262” value in experiment [1] came to 2 ug/mi. Besides, in experiment [2], the “MIC values, Pasteurella multocida CVCC399” value came to 0.25 ug/mi. Also, the “MIC values, Streptococcus equines CVCC556” value in experiment [3] is “≦0.25 ug/mi”. For the same compound, in experiment [4], the “MIC values, Staphylococcus aureus CVCC26003” value was “≦0.25 ug/mi”.
As for `CC[C@H]1OC(=O)[C@H](C)[C@@H](O[C@H]2C[C@@](C)(OC)[C@](O)(CNCc3cccnc3)[C@H](C)O2)[C@H](C)[C@@H](O[C@@H]2O[C@H](C)C[C@H](N(C)C)[C@H]2O)[C@](C)(O)C[C@@H](C)NC[C@H](C)[C@@H](O)[C@]1(C)O` [syzx-21, (2R,3S,4R,5S,8R,10R,11R,12S,13S,14R)-13-[(2,6-dideoxy-3-C-methyl-3-O-methyl-4-C-[(3-pyridinylmethylamino)methyl]-α-L-ribopyranosyl)oxy]-2-ethyl-3,4,10-trihydroxy-3,5,8,10,12,14-hexamethyl-11-[[3,4,6-trideoxy-3-(dimethylamino)-β-D-xylo-hexopyranosy]oxy]-1-oxa-7-azacyclopentadecan-15-one], the “MIC values, Haemophilus parasuis” value in the experiment with Haemophilus parasuis is “≦0.25 ug/mi”. The “MIC values, Actinobacillus pleuropneumoniae CVCC262” value in experiment [1] was determined as 32 ug/mi. The “MIC values, Pasteurella multocida CVCC399” value in experiment [2] is “≦0.25 ug/mi”. The “MIC values, Streptococcus equines CVCC556” value in experiment [3] is reported as “≦0.25 ug/mi”. In experiment [4], the “MIC values, Staphylococcus aureus CVCC26003” value is listed as 0.5 ug/mi.
Regarding `CCOCCCNCC1(O)C(C)OC(OC2C(C)C(=O)OC(CC)C(C)(O)C(O)C(C)CNC(C)CC(C)(O)C(OC3OC(C)CC(N(C)C)C3O)C2C)CC1(C)OC` [syzx-22, (2R,3S,4R,5S,8R,10R,11R,12S,13S,14R)-13-[(2,6-dideoxy-3-C-methyl-3-O-methyl-4-C-[(3-ethoxypropyl)amino)methyl]-α-L-ribopyranosyl)oxy]-2-ethyl-3,4,10-trihydroxy-3,5,8,10,12,14-hexamethyl-11-[[3,4,6-trideoxy-3-(dimethylamino)-β-D-xylo-hexopyranosy]oxy]-1-oxa-7-azacyclopentadecan-15-one], in the experiment with Haemophilus parasuis, the “MIC values, Haemophilus parasuis” value is on record as “≦0.25 ug/mi”. Also, the “MIC values, Actinobacillus pleuropneumoniae CVCC262” value in experiment [1] amounted to 8 ug/mi. Moreover, the “MIC values, Pasteurella multocida CVCC399” value in experiment [2] came out at 0.5 ug/mi. In addition, the “MIC values, Streptococcus equines CVCC556” value in experiment [3] worked out at 0.5 ug/mi. For the same compound, the “MIC values, Staphylococcus aureus CVCC26003” value in experiment [4] is given as 1 ug/mi.
Regarding `CC[C@H]1OC(=O)[C@H](C)[C@@H](O[C@H]2C[C@@](C)(OC)[C@](O)(CNCc3ccccc3OC)[C@H](C)O2)[C@H](C)[C@@H](O[C@@H]2O[C@H](C)C[C@H](N(C)C)[C@H]2O)[C@](C)(O)C[C@@H](C)NC[C@H](C)[C@@H](O)[C@]1(C)O` [syzx-27], in the experiment with Haemophilus parasuis, the “MIC values, Haemophilus parasuis” value is listed as “≦0.25 ug/mi”. Moreover, the “MIC values, Actinobacillus pleuropneumoniae CVCC262” value in experiment [1] is on record as 4 ug/mi. Further, the “MIC values, Pasteurella multocida CVCC399” value in experiment [2] is recorded as 0.5 ug/mi. Besides, the “MIC values, Streptococcus equines CVCC556” value in experiment [3] is “≦0.25 ug/mi”. In experiment [4], the “MIC values, Staphylococcus aureus CVCC26003” value came out at 0.5 ug/mi.
